Experimental data taken from ChEMBL document CHEMBL5528067, “From Synergy to Monotherapy: Discovery of Novel 2,4,6-Trisubstituted Triazine Hydrazone Derivatives with Potent Antifungal Potency In Vitro and In Vivo” (J Med Chem, 2024).
≈ marks a conversion by molar mass, not a printed value.

Key:
Assay type in all cases: functional
[1] = tested on: Pichia kudriavzevii; test: Antifungal activity against Candida krusei 4996 assessed as growth inhibition measured after 48 hrs incubation by CLSI based micro-dilution broth method
[2] = tested on: Candida parapsilosis; test: Antifungal activity against Candida parapsilosis 22019 assessed as growth inhibition measured after 48 hrs incubation by CLSI based micro-dilution broth method; details: Lodderomyces parapsilosis
[3] = tested on: Nakaseomyces glabratus; test: Antifungal activity against Candida glabrata 537 assessed as growth inhibition measured after 48 hrs incubation by CLSI based micro-dilution broth method
[4] = tested on: [Candida] auris; test: Antifungal activity against FCZ-resistant Candida auris 919 assessed as growth inhibition measured after 48 hrs incubation by CLSI based micro-dilution broth method; details: Candidozyma auris
[5] = tested on: Candida albicans; test: Antifungal activity against FCZ-resistant Candida albicans SC5314 assessed as growth inhibition measured after 48 hrs incubation by CLSI based micro-dilution broth method
[6] = tested on: Candida albicans; test: Antifungal activity against FCZ-resistant Candida albicans strain 901 assessed as growth inhibition in presence of fluconazole measured after 48 hrs incubation by CLSI based micro-dilution broth method
[7] = tested on: [Candida] auris; test: Antifungal activity against FCZ-resistant Candida auris 918 assessed as growth inhibition measured after 48 hrs incubation by CLSI based micro-dilution broth method; details: Candidozyma auris
[8] = tested on: Candida albicans; test: Synergistic antifungal activity against FCZ-resistant Candida albicans strain 904 assessed as fractional inhibitory concentration index measured after 48 hrs in presence of FCZ by CLSI based micro-dilution broth method
[9] = tested on: Candida albicans; test: Antifungal activity against FCZ-resistant Candida albicans 10231 assessed as growth inhibition measured after 48 hrs incubation by CLSI based micro-dilution broth method
[10] = tested on: Candida albicans; test: Synergistic antifungal activity against FCZ-resistant Candida albicans strain 901 assessed as fractional inhibitory concentration index measured after 48 hrs in presence of FCZ by CLSI based micro-dilution broth method
[11] = tested on: Candida albicans; test: Antifungal activity against FCZ-resistant Candida albicans strain 901 assessed as growth inhibition measured after 48 hrs incubation by CLSI based micro-dilution broth method
[12] = tested on: Candida albicans; test: Antifungal activity against FCZ-resistant Candida albicans strain 904 assessed as growth inhibition in presence of fluconazole measured after 48 hrs incubation by CLSI based micro-dilution broth method
[13] = tested on: Cryptococcus neoformans; test: Antifungal activity against Cryptococcus neoformans 32609 assessed as growth inhibition measured after 48 hrs incubation by CLSI based micro-dilution broth method
[14] = tested on: Candida tropicalis; test: Antifungal activity against Candida tropicalis 8915 assessed as growth inhibition measured after 48 hrs incubation by CLSI based micro-dilution broth method
[15] = tested on: Candida albicans; test: Antifungal activity against FCZ-resistant Candida albicans strain 904 assessed as growth inhibition measured after 48 hrs incubation by CLSI based micro-dilution broth method

| Structure (SMILES) | MIC80 [1] [µg/mL] | MIC80 [2] [µg/mL] | MIC80 [3] [µg/mL] | MIC80 [4] [µg/mL] | MIC80 [5] [µg/mL] | MIC80 [6] [µg/mL] | MIC80 [7] [µg/mL] | fractional inhibitory concentration index (FICI) [8] | MIC80 [9] [µg/mL] | fractional inhibitory concentration index (FICI) [10] | MIC80 [11] [µg/mL] | MIC80 [12] [µg/mL] | MIC80 [13] [µg/mL] | MIC80 [14] [µg/mL] | MIC80 [15] [µg/mL] |
| --- | --- | --- | --- | --- | --- | --- | --- | --- | --- | --- | --- | --- | --- | --- | --- |
| Oc1ccccc1/C=N/Nc1nc(NCc2ccc(F)cc2)nc(NCc2ccc(F)cc2)n1 | > 64 | 8 (≈ 17.3 µM) | 4 (≈ 8.67 µM) | > 64 | > 64 | 0.5 | > 64 | 0.25 | > 64 | 0.25 | 4 (≈ 8.67 µM) | 0.5 | 8 (≈ 17.3 µM) | > 64 | 4 (≈ 8.67 µM) |
| O=[N+]([O-])c1ccc(O)c(/C=N/Nc2nc(NCc3ccc(F)cc3)nc(Nc3ccc(F)cc3)n2)c1 | 1 (≈ 2.03 µM) | 8 (≈ 16.2 µM) | 0.5 (≈ 1.02 µM) | 32 (≈ 65 µM) | 2 (≈ 4.06 µM) |  | 8 (≈ 16.2 µM) |  | 8 (≈ 16.2 µM) |  |  |  | 2 (≈ 4.06 µM) | 2 (≈ 4.06 µM) |  |
| O=[N+]([O-])c1ccc(/C=N/Nc2nc(NCc3ccc(F)cc3)nc(NCc3ccc(F)cc3)n2)c(O)c1 | > 64 | > 64 | 2 (≈ 3.95 µM) | > 64 | > 64 | 0.5 | > 64 | 0.38 | > 64 | 0.38 | 2 (≈ 3.95 µM) | 0.5 | > 64 | > 64 | 2 (≈ 3.95 µM) |
| O=[N+]([O-])c1ccc(O)c(/C=N/Nc2nc(N3CCOCC3)nc(N3CCOCC3)n2)c1 | > 64 | > 64 | > 64 | > 64 | > 64 |  | > 64 |  | > 64 |  |  |  | > 64 | > 64 |  |
| COc1ccc(Nc2nc(NCc3ccc(F)cc3)nc(N/N=C/c3cc([N+](=O)[O-])ccc3O)n2)cc1 | 1 (≈ 1.98 µM) | 8 (≈ 15.9 µM) | 0.5 (≈ 0.991 µM) | 32 (≈ 63.4 µM) | 2 (≈ 3.96 µM) |  | 32 (≈ 63.4 µM) |  | 16 (≈ 31.7 µM) |  |  |  | 2 (≈ 3.96 µM) | 2 (≈ 3.96 µM) |  |
| O=[N+]([O-])c1ccc(O)c(/C=N/Nc2nc(NCc3ccco3)nc(NCc3ccco3)n2)c1 | 1 (≈ 2.22 µM) | 4 (≈ 8.88 µM) | 1 (≈ 2.22 µM) | 4 (≈ 8.88 µM) | 2 (≈ 4.44 µM) |  | 4 (≈ 8.88 µM) |  | 8 (≈ 17.8 µM) |  |  |  | 2 (≈ 4.44 µM) | 2 (≈ 4.44 µM) |  |
| COc1ccc(Nc2nc(N/N=C/c3cc([N+](=O)[O-])ccc3O)nc(Nc3ccc(OC)cc3)n2)cc1 | 1 (≈ 1.99 µM) | > 64 | 2 (≈ 3.98 µM) | > 64 | 2 (≈ 3.98 µM) |  | > 64 |  | 16 (≈ 31.8 µM) |  |  |  | 2 (≈ 3.98 µM) | 4 (≈ 7.96 µM) |  |
| O=[N+]([O-])c1ccc(O)c(/C=N/Nc2nc(NCc3ccc(F)cc3)nc(N3CCOCC3)n2)c1 | 2 (≈ 4.27 µM) | 32 (≈ 68.3 µM) | 1 (≈ 2.13 µM) | > 64 | 4 (≈ 8.54 µM) |  | > 64 |  | 16 (≈ 34.2 µM) |  |  |  | 4 (≈ 8.54 µM) | 4 (≈ 8.54 µM) |  |
| COc1ccc(Nc2nc(NCc3ccco3)nc(N/N=C/c3cc([N+](=O)[O-])ccc3O)n2)cc1 | 1 (≈ 2.1 µM) | 4 (≈ 8.4 µM) | 0.5 (≈ 1.05 µM) | 8 (≈ 16.8 µM) | 2 (≈ 4.2 µM) |  | 8 (≈ 16.8 µM) |  | 8 (≈ 16.8 µM) |  |  |  | 2 (≈ 4.2 µM) | 4 (≈ 8.4 µM) |  |
| O=[N+]([O-])c1ccc(O)c(/C=N/Nc2nc(NCc3ccc(F)cc3)nc(NCC3CCCCC3)n2)c1 | 1 (≈ 2.02 µM) | 2 (≈ 4.04 µM) | 1 (≈ 2.02 µM) | 8 (≈ 16.2 µM) | 2 (≈ 4.04 µM) |  | 4 (≈ 8.09 µM) |  | 16 (≈ 32.4 µM) |  |  |  | 2 (≈ 4.04 µM) | 2 (≈ 4.04 µM) |  |
| O=[N+]([O-])c1ccccc1/C=N/Nc1nc(NCc2ccc(F)cc2)nc(NCc2ccc(F)cc2)n1 |  |  |  |  |  | > 64 |  | 1.13 |  | 1.13 | > 64 | > 64 |  |  | > 64 |
| Fc1ccc(CNc2nc(NCc3ccc(F)cc3)nc(N/N=C/c3cccc(Cl)c3)n2)cc1 |  |  |  |  |  | > 64 |  | 1.13 |  | 1.13 | > 64 | > 64 |  |  | > 64 |
| O=[N+]([O-])c1ccc(O)c(/C=N/Nc2nc(NCc3ccc(F)cc3)nc(NCc3ccco3)n2)c1 | 1 (≈ 2.09 µM) | 2 (≈ 4.18 µM) | 1 (≈ 2.09 µM) | 4 (≈ 8.36 µM) | 2 (≈ 4.18 µM) |  | 2 (≈ 4.18 µM) |  | 8 (≈ 16.7 µM) |  |  |  | 2 (≈ 4.18 µM) | 2 (≈ 4.18 µM) |  |
| Fc1ccc(CNc2nc(NCc3ccc(F)cc3)nc(N/N=C/c3ccc(I)cc3)n2)cc1 |  |  |  |  |  | > 64 |  | 1.13 |  | 1.13 | > 64 | > 64 |  |  | > 64 |
| Fc1ccc(CNc2nc(NCc3ccc(F)cc3)nc(N/N=C/c3ccccc3)n2)cc1 |  |  |  |  |  | > 64 |  | 1.13 |  | 1.13 | > 64 | > 64 |  |  | > 64 |
| Cc1ccc(/C=N/Nc2nc(NCc3ccc(F)cc3)nc(NCc3ccc(F)cc3)n2)cc1 |  |  |  |  |  | > 64 |  | 1.13 |  | 1.13 | > 64 | > 64 |  |  | > 64 |
| O=[N+]([O-])c1cc(O)ccc1/C=N/Nc1nc(NCc2ccc(F)cc2)nc(NCc2ccc(F)cc2)n1 |  |  |  |  |  | 2 |  | 0.16 |  | 0.16 | > 64 | 2 |  |  | > 64 |
| Fc1ccc(CNc2nc(NCc3ccc(F)cc3)nc(N/N=C/c3ccc(Br)cc3)n2)cc1 |  |  |  |  |  | > 64 |  | 1.13 |  | 1.13 | > 64 | > 64 |  |  | > 64 |
| O=[N+]([O-])c1ccc(O)c(/C=N/Nc2nc(NCc3ccccc3)nc(NCc3ccc(F)cc3)n2)c1 | 1 (≈ 2.05 µM) | 4 (≈ 8.19 µM) | 0.5 (≈ 1.02 µM) | 16 (≈ 32.8 µM) | 2 (≈ 4.09 µM) |  | 4 (≈ 8.19 µM) |  | 8 (≈ 16.4 µM) |  |  |  | 2 (≈ 4.09 µM) | 2 (≈ 4.09 µM) |  |
